Measured values: patent US20110318738A1, “IDENTIFICATION AND REGULATION OF A NOVEL DNA DEMETHYLASE SYSTEM” (University of Utah Research Foundation, priority 2008, published 2011)

Assays:
[1] = system: apc^mcr zebrafish embryos; assay: Whole mount in situ hybridization in apc mutant embryos; settings: for gadd45α expression (% of embryos) / aid expression (% of embryos): apc^wt + DMSO 94%; for gadd45α expression (% of embryos): apc^mcr + DMSO 9%; for aid expression (% of embryos): apc^mcr + DMSO 17%; for mbd4 expression (% of embryos): apc^wt + DMSO 95%, apc^mcr + DMSO 3%; for irbp (% of embryos): apc^sib 96%
[2] = system: DLD1, SW480, and HT29 cells; assay: Quantitative PCR measuring DHRS9 (RDHL) expression in colon cancer cell lines; assay type: cell-based, human; settings: pargyline 3 mM, FIG. 14B
[3] = system: apc^mcr zebrafish embryos; assay: Quantitative RT-PCR in apc mutant embryos after drug treatment; assay type: in vivo; settings: for expression of aid, gadd45α and mbd4: all-trans retinoic acid 1 μM or NS-398 10 μM, FIG. 11A
Procedure: Quantitative RT-PCR primers for amplification of zebrafish rdh1l (Nadauld et al., 2005), human DHRS9 (Jette et al., 2004) 28S rRNA (Eisinger et al., 2006), and h18S rRNA (Delaunay et al., 2000) were described previously, and are (hereby incorporated by reference in its entirety into this application). A template-free negative control was included in each experiment.
(§1) RNA from embryos or human adenoma tissues was isolated using Trizol (Invitrogen). cDNA library was prepared using Superscript III kit (Invitrogen). RT-PCR was performed on a Roche light cycler.

zebrafish embryos = assay: Whole mount in situ hybridization for neuronal markers in morpholino-injected embryos; assay type: in vivo; settings: morpholino injected at single-cell stage, 24 hpf; for Sox-2: embryos showing positive staining for the marker: Control Mo 97%; for Neurogenin-1: embryos showing positive staining for the marker: Control Mo 100%
Procedure: Wild-type zebrafish (Tuebingen strain) were maintained in a 14 hr:10 hr light:dark cycle in a Z-Mod at 28.5° C. Embryos were injected at single-cell stage and then grown in a 28.5° C. incubator. Morpholinos were obtained from Gene-tools LLC Ltd. For these experiments, morpholino sequences were designed against the following:
Whole mount in situ hybridization was performed as described earlier in Rai et al., 2006 with digoxigenin (Roche) labeled probes against neurogenin-1 and sox-2.
To address whether AID/Apobec enzymes, Gadd45, or zebrafish Mbd4 have a role in the control of DNA methylation during normal zebrafish development, a subset of the enzyme family members were knocked down (by morpholino injection) and their impact on development was examined. Either AID, Gadd45α, or Mbd4 knockdown caused the loss of neurons at 24 hpf, shown by the absence of pro-neuronal markers such as neurogenin-1 or sox-2. […] As neurons form in mice lacking Mbd4 (or AID), zebrafish may rely more on these proteins for neurogenesis than do mice, or alternatively, neurogenesis in zebrafish may be more sensitive to misregulation of DNA methylation levels. […] The percentage listed depicts embryos showing positive staining for the marker indicated.

wild type embryos = assay: Quantitative RT-PCR in RA deficiency models; assay type: in vivo, zebrafish; settings: DEAB treated wild type embryos; FIG. 11B
Procedure: (§2) Expression of genes are first normalized to 28S, and then to the control embryo mRNA/28S ratio, valued as 1. […] In panels A-C, expression of genes are normalized first to 28S (A-B) or 18S (C) and then to the control sample values as 1.
as §1

HT29 and DLD1 = assay: Quantitative RT-PCR for AID, MBD4 and GADD45α in RA responsive colon carcinoma cell lines; assay type: cell-based; settings: human colon cancer cell lines, ATRA 5 μM each day for two days; FIG. 11C
apc mutants (72 hpf) = assay: MeDIP-qPCR for various genes in apc mutants; assay type: in vivo, zebrafish; settings: apc mutant embryos treated with RA; FIG. 11D
Procedure: as §2
This procedure was described in Weber et al., 2007. Briefly, Dynabeads (conjugated with sheep anti-mouse secondary antibody, Invitrogen) were incubated with 10 μg of 5MeC antibody (Eurogentec) for 2 hrs, washed, and then incubated with 4 μg of sonicated DNA (300 bp-1000 bp fragments) overnight Immunoprecipitated DNA was amplified using for whole genome amplification kit (Sigma Aldrich). Following amplification, 2 μg of amplified DNA was labeled with Cy5, and 2 μg of input DNA was labeled with Cy3 (Bio labs). Samples were competitively hybridized to 244K oligonucleotide promoter arrays (Agilent Inc).

[4] = apc^mcr embryos, Table 6, apc^mcr 0%
[5] = apc^mcr embryos, Table 6, apc^sib 100%, apc^mcr 0%

CC1=C(/C=C/C(C)=C/C=C/C(C)=C/C=O)C(C)(C)CCC1 [RAL]
intestinal differentiation marked by fabp2 expression ([1]; apc^mcr embryos treated with exogenous RAL): partially restored | fabp2 (% of embryos) ([1]; apc^mcr embryos, Table 5, apc^wt + Control Mo 99%, mutant + Control Mo 3%): 59%

Pou5f1 Mo: morpholino 5′-CGCTCTCTCCGTCATCTTTCCGCTA-3′ (SEQ ID NO. 14) (all phosphorodiamidate morpholino (PMO))
gadd45α expression (% of embryos) ([1]; apc^mcr embryos, Table 4): 83% | aid expression (% of embryos) ([1]; apc^mcr embryos, Table 4): 81% | mbd4 expression (% of embryos) ([1]; apc^mcr embryos, Table 4): 67%

Corest mo: morpholino 5′-CCTTCTCTAACATTGCGGGCATCTT-3′ (SEQ ID NO. 19) (all phosphorodiamidate morpholino (PMO))
irbp (% of embryos) [1, 4]: 11% | fabp2 (% of embryos) [1, 5]: 79%

C#CCN(C)Cc1ccccc1 [pargyline]
DHRS9 expression [2]: upregulated | expression of rdh1l ([3]; apc^mcr zebrafish embryos, pargyline 3 mM, FIG. 15A): rescued expression | expression of fabp2 ([1]; apc^mcr zebrafish embryos, pargyline 3 mM): rescued expression

Mbd4 Mo: morpholino against zMbd4, 5′-AGAGAGAAACACACCTGCTCGCTGC-3′ (SEQ ID No. 8) (all phosphorodiamidate morpholino (PMO))
Sox-2: embryos showing positive staining for the marker (zebrafish embryos): 15% (n = 53) | Neurogenin-1: embryos showing positive staining for the marker (zebrafish embryos): 14% (n = 43)

CCN(CC)c1ccc(C=O)cc1 [DEAB, 4-(diethylamino) benzaldehyde]
expression of the demethylase genes (wild type embryos): increased expression

Pitx2 Mo: morpholino 5′-TTTATCAAACTTACTCGGACTCTGG-3′ (SEQ ID NO. 15) (all phosphorodiamidate morpholino (PMO))
cyclinD1 (% of embryos) ([1]; apc^mcr embryos, Table 5, apc^wt + Control Mo 96%, mutant + Control Mo 17%): 90% | Pcna (% of embryos) ([1]; apc^mcr embryos, Table 5, apc^wt + Control Mo 97%, mutant + Control Mo 10%): 85%

Groucho2 mo: morpholino 5′-GCCCTGTGGATACATCTTGAAATGT-3′ (SEQ ID NO. 17) (all phosphorodiamidate morpholino (PMO))
irbp (% of embryos) [1, 4]: 5% | fabp2 (% of embryos) [1, 5]: 95% | rdh1l (% of embryos) [1, 5]: 83% | trypsin (% of embryos) [1, 5]: 86%

Lsd1 mo: morpholino 5′-GGTCTGACTTCTTATTGGACAACAT-3′ (SEQ ID NO. 18) (all phosphorodiamidate morpholino (PMO))
irbp (% of embryos) [1, 4]: 8% | fabp2 (% of embryos) [1, 5]: 83%

Gadd45α Mo: morpholino against Gadd45α, 5′-ATATAAAAACATACCTTTCCGTTGC-3′ (SEQ ID No. 4) (all phosphorodiamidate morpholino (PMO))
Sox-2: embryos showing positive staining for the marker (zebrafish embryos): 33% (n = 48) | Neurogenin-1: embryos showing positive staining for the marker (zebrafish embryos): 11% (n = 52)

CS(=O)(=O)Nc1ccc([N+](=O)[O-])cc1OC1CCCCC1 [Cox-2 inh, NS-398]
expression of aid, gadd45α and mbd4 ([3]; apc mutants): little effect | gadd45α expression (% of embryos) ([1]; apc^mcr embryos, Table 4): 8% | aid expression (% of embryos) ([1]; apc^mcr embryos, Table 4): 20% | mbd4 expression (% of embryos) ([1]; apc^mcr embryos, Table 4): 9%%

AID Mo: morpholino against AID, 5′-GTTTTGTTTTCGCTTACCTGTCCAG-3′ (SEQ ID No. 1) (all phosphorodiamidate morpholino (PMO))
Sox-2: embryos showing positive staining for the marker (zebrafish embryos): 13% (n = 38) | Neurogenin-1: embryos showing positive staining for the marker (zebrafish embryos): 12% (n = 50)

CC1=C(/C=C/C(C)=C/C=C/C(C)=C/C(=O)O)C(C)(C)CCC1 [ATRA, all-trans retinoic acid]
Cebpβ expression ([3]; APC mutants, RA treatment, FIG. 12A): down regulated | dnmt1 expression ([3]; apc mutants, RA treatment): did not restore | expression of aid, gadd45α and mbd4 ([3]; apc mutants): greatly reduced | expression of pou5f1 ([3]; apc^mcr mutant embryos, ATRA 1 μM, FIG. 12A): reduced the expression | gadd45α expression (% of embryos) ([1]; apc^mcr embryos, Table 4): 91% | aid expression (% of embryos) ([1]; apc^mcr embryos, Table 4): 85% | mbd4 expression (% of embryos) ([1]; apc^mcr embryos, Table 4): 65% | dnmt1 expression (% of embryos) ([1]; apc^mcr embryos, Table 4, apc^wt + DMSO 97%, apc^mcr + DMSO 11%): 89% | expression of aldh1a2 ([1]; apc^mcr mutant, rdh1l morphant or nls mutant zebrafish treated with RA): decreased the expression | expression of the demethylase genes (HT29 and DLD1): suppressed expression | DNA methylation on the panel of genes implicated in intestinal differentiation and proliferation (apc mutants (72 hpf)): reversed the loss of DNA methylation
